Source: US20110237670A1, “IMPROVEMENT OF NORMAL COGNITIVE FUNCTION” (priority 2008, published 2011)

What was measured:
[1] = test system: patients with Alzheimer's disease; settings: human, in vivo; cited from earlier work
healthy volunteers = settings: human, in vivo; cited from earlier work
Male NMRI mice [2] = experiment: prepulse inhibition (PPI) of acoustic startle response model (pre-attentive information processing); type: in vivo; settings: for increase in capacity to filter information pre-attentively (absolute change in PPI at day 1 compared to matching test): acute administration, day 1, FIG. 1B; for effect on PPI response: day 1 and day 3, prepulse level 9 dB over background noise
Source text: One way to elucidate how substances affect our cognitive function is to measure how the brain processes information. Pre-attentive information processing is thought to be important for selective and efficient processing of sensory information and for coherent cognitive operations, and thus for memory and cognitive functions. Pre-attentive information processing can be assessed by using the prepulse inhibition (PPI) of acoustic startle response model. One major advantage of the PPI model is that it is a translational behavior. […] PPI is the reduction in reflex response to an intense stimulus when this stimulus is immediately preceded (30-500 ms) by a weak prestimulus. The presentation of the prestimulus, although not strong enough to elicit a measurable response by itself, evokes a short lasting sensory gating process in the brain, which is manifested by the attenuated response to the successive intense stimulus. PPI is hypothesized to reflect the ability of the central nervous system to filter out distracting and irrelevant stimuli before it reaches the cortex. An increased, i.e. improved, PPI could result in better inhibitory mechanisms that filter or gate intrinsic and extrinsic stimuli prior to higher order processing. […] Furthermore, PPI and other cognitive functions are regulated by the same cortico-striato-pallido-thalamic circuitry and association between these different cognitive domains has been shown.
(§1) Male NMRI mice (Charles River, Germany, 25-35 g) were used in examples 1, 2 and 3. The animals were housed nine per cage in a colony room under constant temperature (20±1° C.) and humidity (50±5%). Animals were allowed to acclimatize for at least one week prior to behavioral testing. The daylight cycle was maintained artificially (lights on from 0600 to 1800 hours) and behavioral experiments were conducted during the light phase. The Ethics Committee for Animal Experiments, Goteborg, Sweden, approved all experimental procedures used in the present study.
Acoustic startle was recorded using a MOPS 3 startle response recording system (Metod och Produkt Svenska AB, Sweden). The animals were placed in small plexi glass cages (10×5.5×6 cm) that were suspended at the top of a piston. A movement of the animal in the cage caused a displacement of the piston, the acceleration of which was registered by a piezo-electric accelerometer. This signal was sampled and digitized by a microcomputer that also controlled the delivery of acoustic stimuli. Startle amplitude was defined as the maximum signal amplitude occurring 8-30 ms after the startle-eliciting stimulus. Four cages were used simultaneously and each cage was housed in a dimly lit and sound attenuated cabinet (52×42×38 cm). The cages were calibrated for equal sensitivity prior to testing and a mouse was always tested in the same cage at subsequent tests. The acoustic stimuli consisted of white noise, which was delivered by two high-frequency loudspeakers built into the ceiling of the cabinet.
Each test session started with an 8-min adaptation period containing only white background noise at 65 dB (A). Startle pulse was set to 105 dB (A) and prepulse intensities to 3, 9 and 12 dB (A) above background noise. Duration of acoustic stimuli was set to 20 ms for both prepulses and startle pulses and interstimulus interval (ISI) was set to 40 ms. Following the adaptation period the animals were subjected to a series of 5 startle pulse-alone trials that were omitted from the analysis since they only served to accommodate the animals to the sudden stimulus onset. The animals were then subjected to a pseudo-randomized combination of 3 prepulse-alone trials for each prepulse intensity, 45 pulse-alone trials and 15 prepulse+pulse trials for each prepulse intensity. Trials were separated by 5-15 s intervals.
All mice were first subjected to a pre-test to ensure that they expressed basal startle reactivity.

Male NMRI mice [3] = experiment: habituation of acoustic startle response (non-associative learning); type: in vivo; settings: acute 1000 mg/kg intraperitoneally, block 6, versus saline, p<0.05, FIG. 2
Experimental: as §1
The model used to measure non-associative learning was habituation of acoustic startle response. Habituation refers to the decrease in response to repeated presentation of identical stimuli and the model used for this test is also translational in nature. Since habituation is a measure of how the brain filter outs irrelevant stimuli and focus selectively on important stimuli, it is thought to be a prerequisite for other forms of learning and cognitive functions.
Acoustic startle was recorded using a MOPS 3 startle response recording system (see example 1). […]
The first startle pulse response was omitted from statistical analysis since it was too variable to achieve significance. […] Habituation, the change in mean response amplitude over time, was calculated using the formula: […]

Male NMRI mice [4] = experiment: novel object recognition test (learning and memory formation); type: in vivo
Experimental: as §1
There are several learning and memory tasks that are appropriate for study in rodents. One widely used is the novel object recognition test. The test involves exposing the rodent to two identical objects for a brief period of time (the introductory session). […] Furthermore, very similar aspects of memory formation (involving encoding, con solidation and retrieval of information) can be assessed in human using the Brief Visual Memory Task-Revised (BVMT-R). […]
The object exploration time was manually scored from the videotapes. […]
Data are expressed as means and standard errors of the mean (S.E.M.). […]
A discrimination index was calculated for each animal: Tn/(Tf+Tn)*100 […]

mice = settings: pre-attentive information filtering; cited from earlier work
[5] = test system: patients with schizophrenia; settings: adjunctive treatment, 6 g/day; cited from earlier work
[6] = in vivo, cited from earlier work
humans = settings: cited from earlier work

CC12CC3CC(C)(C1)CC(N)(C3)C2 [Memantine]
effect on cognition in patients with Alzheimer's disease [1]: enhance cognition
effect on cognition in healthy volunteers (healthy volunteers): no or detrimental effects on cognition

NCCCC[C@H](N)C(=O)O [L-lysine]
pulse-alone response (acoustic startle; sedative properties) (Male NMRI mice [2]; 500-2000 mg/kg): did not affect the pulse-alone response
increase in capacity to filter information pre-attentively (absolute change in PPI at day 1 compared to matching test) (Male NMRI mice [2]; L-lysine 500 mg/kg intraperitoneally): 28.7%
increase in capacity to filter information pre-attentively (absolute change in PPI at day 1 compared to matching test) (Male NMRI mice [2]; L-lysine 1000 mg/kg intraperitoneally): 51.3%
increase in capacity to filter information pre-attentively (absolute change in PPI at day 1 compared to matching test) (Male NMRI mice [2]; L-lysine 2000 mg/kg intraperitoneally): 9.0%
final PPI test at day 9 (Male NMRI mice [2]; after a 6-day washout period): did not demonstrate any significant effects
effect on PPI response (Male NMRI mice [2]; doses 500 mg/kg and 1000 mg/kg): improved the PPI response in a dose related manner
effect on PPI response (Male NMRI mice [2]; highest dose 2000 mg/kg): did not affect PPI significantly
effect of test day on PPI (day 1 versus day 3, repeated administration) (Male NMRI mice [2]; once daily for three days, 500-2000 mg/kg): no significant effect of test day
habituation of the acoustic startle response (Male NMRI mice [3]): improves the brain capacity to filter out irrelevant information
time exploring the two similar objects during the introductory session versus saline (Male NMRI mice [4]; 1000 mg/kg intraperitoneally 30 min before the introductory session): no difference
exploration of the familiar object, recognition session compared with introductory session (Male NMRI mice [4]; 1000 mg/kg intraperitoneally, 90 min delay, p<0.05, FIG. 3B): significantly less exploration of the familiar object
effect on cognitive impairments induced by phencyclidine (mice): can restore cognitive impairments
effect on symptoms in patients with schizophrenia [5]: possibly can improve some symptoms
oral bioavailability ([6]; po): very good oral bioavailability
blood-brain barrier penetration [6]: easily penetrates the blood-brain barrier
reported adverse effects in humans (humans; L-lysine treatment in general): transient gastrointestinal problems in a few patients
adverse effects in long-term studies (humans; administration up to 2 years): have not revealed any adverse effects
reported adverse effects in short-term human studies (humans; doses as high as 40 g/day, resolved as the dose was decreased): abdominal cramps and transient diarrhea

COc1cc2c(cc1OC)C(=O)C(CC1CCN(Cc3ccccc3)CC1)C2 (stereo not shown) [Donezepil]
effect on cognition in patients with Alzheimer's disease [1]: enhance cognition
effect on cognition in healthy volunteers (healthy volunteers): no or detrimental effects on cognition
